Laboratory results: PMC11396667, “Design, Synthesis, and Anticancer and Antibacterial Activities of Quinoline-5-Sulfonamides” (Molecules, 2024)

What was measured:
[1] = system: MDA-MB-231 (human breast adenocarcinoma) cells; test: WST-1 cell viability assay, MDA-MB-231; format: cell-based; conditions: Homo sapiens, MDA-MB-231; WST-1, 72 h exposure, ± SD, n = 6
Procedure: (§1) The synthesized compounds were tested using three cancer cell lines—human amelanotic melanoma (C-32), human breast adenocarcinoma (MDA-MB-231), and human lung adenocarcinoma (A549)—and, for comparison, normal human dermal fibroblasts (HFF-1). The WST-1 (water-soluble tetrazole salt) assay was used to evaluate the effect of the synthesized compounds on the viability of cultured cells.
(§2) Compounds were evaluated for their antiproliferative activity using three cultured cell lines: C-32 (human amelanotic melanoma, ATCC, Manassas, VA, USA), A549 (human lung adenocarcinoma, ATCC, Manassas, VA, USA), MDA-MB-231 (human breast adenocarcinoma derived from metastatic site: pleural effusion, ATCC, Manassas, VA, USA), together with HFF-1 (normal human dermal fibroblasts, ATCC, Manassas, VA, USA). The cultured cells were kept at 37 °C and 5% CO2.
(§3) Cells were seeded in 96-well plates at 5000/well in 100 μL of medium. After 24 h of incubation, the medium was replaced with a new one with the addition of the test substance. After 72 h, the following tests were performed: with crystal violet (determination of the number of adherent cells in the culture), the WST-1 test (determination of the relative number of living cells and their metabolic activity), and the LDH test (determination of the relative number of dead cells in cultures—cytotoxicity of the tested substance).
(§4) WST-1 test: The WST-1 test (Roche Diagnostics, Mannheim, Germany) allows one to determine the relative number of cells in cultures. Absorbance is directly proportional to the number of cells and their metabolic activity. The absorbance measurement is performed at λ = 450 nm (reference wave 600 nm).

[2] = system: A549 (human lung adenocarcinoma) cells; test: WST-1 cell viability assay, A549; format: cell-based; conditions: Homo sapiens, A549; WST-1, 72 h exposure, ± SD, n = 6
Procedure: as §1, §2, §3, §4

[3] = system: C-32, A549, MDA-MB-231 and HFF-1 cells; test: Crystal violet, WST-1 and LDH assays of 3c; format: cell-based; conditions: 3c in medium above 0.3 µM, 72 h; particularly in A549 and MDA-MB-231 cells
Procedure: The effect of the compound on cell viability was determined using, in addition to the WST-1 assay, the crystal violet assay and the LDH (lactate dehydrogenase) assay. Furthermore, a wound healing test (indicator of cell proliferation and migration capacity) and assessment of gene expression (in the transcription phase) of BCL-2, BAX, TP53, P21, and H3 were performed.
An increase in the number of dead cells is shown by the absorbance line in the LDH test.
Cells were seeded in 96-well plates at 5000/well in 100 μL of medium. After 24 h of incubation, the medium was replaced with a new one with the addition of the test substance. […]
Crystal violet test: The crystal violet (Sigma-Aldrich, Darmstadt, Germany) test determines the relative number of cells based on the amount of dye bound to the DNA of cells in the culture. The absorbance measurement was performed at a wavelength of λ = 540 nm (reference wavelength λ = 690 nm).
as §4, with “nm). […]” for “nm).”

[4] = system: C-32, A549, MDA-MB-231 and HFF-1 cells; test: Wound healing assay; format: cell-based, human; conditions: 3 µM, 72 h after scratching, all cells
Procedure: Photographs of the cell culture (control and culture exposed to compound 3c at a concentration of 3 µM) were taken after scraping the bottom of the vessel with a pipette tip and then after 72 h of incubation (Figure 2). […] In control cultures, the cell-free surface of the vessel (scraped with a pipette tip) becomes overgrown with cells, while in cultures supplemented with medium containing 3 µM of compound 3c, empty spots are visible. In the case of A549 and MDA-MB-231 cells, entire cell-free regions are clearly visible.
The wound healing assay is a standard in vitro technique for examining collective cell migration in two dimensions. The test involves scratching the bottom of a vessel (wells of a culture plate) with a pipette tip and observing over time how quickly cells move to occupy a free surface under specific culture conditions. In the presented work, the observation was carried out after 72 h of culture. At t = 0, a scratch was made, the medium was replaced with fresh one with the addition of the test compound, and then the cultures were incubated for 72 h. The observation was carried out using an OLYMPUS IX 50 microscope (Tokyo, Japan) with a KERN camera (KERN & SOHN GmbH, Balingen, Germany), and an image analysis system with KERN software (BalanceConnection SCD-4.0 Pro) was used to analyze the observed changes.

[5] = system: H3, BCL-2, BAX, P21, and P53 genes in C-32, A549, MDA-MB-231, and HFF-1 cells; test: Transcriptional activity by RT-QPCR; format: cell-based, human; conditions: 36 µM in medium, 24 h
Procedure: The study investigated the effect of compound 3c on the transcriptional activity of genes encoding a proliferation marker (histone H3), cell cycle regulators (P53 and P21), and genes encoding proteins involved in the mitochondrial apoptosis pathway (BCL-2 and BAX) in C-32, A549, MDA-MB-231, and HFF-1 cells. Cultures were exposed to 3c at a concentration of 36 µM in medium for 24 h.
The transcriptional activity of the following genes was assessed: H3 (a gene encoding histone H3, a proliferation marker), BCL-2 and BAX (genes encoding BCL-2 and BAX proteins, respectively; both are mitochondrial proteins associated with apoptosis), and P21 and P53 (cell cycle regulators). Activity was assessed by RT-QPCR using the CFX96 Touch Real-Time PCR Detection System (BIO-RAD Hercules, CA, USA) and a SensiFAST^TM SYBR^R No-ROX One-Step Kit (Meridian Bioscience, Memphis, TN, USA). Cultured cells were exposed (for 24 h) to the tested compounds (0.5 µg/mL). RNA was extracted using Quick-RNA™ MiniPrep kit columns (Zymo Research, Irvine, CA, USA). The extracted RNA was assessed qualitatively and quantitatively. The integrity of total RNA was checked by electrophoresis (1.2% agarose gel, EtBr), and the amount and purity of total RNA in the extracts was determined spectrophotometrically (HP8452A apparatus, Hewlett Packard, Waldbronn, Germany).

| IC50 [1] [µM] | IC50 [2] [µM] | Structure (SMILES) | cell number in cultures (cell viability and cytotoxicity assays) [3] | proliferative activity and migration capacity (wound healing) [4] | BCL-2/BAX ratio (ratio of gene copy numbers) [5] | transcriptional activity of P21 [5] | transcriptional activity of P53 [5] | H3 expression (proliferation marker) ([5]; all the cultures) |
| --- | --- | --- | --- | --- | --- | --- | --- | --- |
| 14.7 ± 1.2 | 19.1 ± 0.8 | C#CCOc1ccccc1NS(=O)(=O)c1ccc(O)c2ncccc12 [3f, 8-Hydroxy-N-[2-(prop-2-yn-1-yloxy)phenyl]quinoline-5-sulfonamide] |  |  |  |  |  |  |
| 15.2 ± 0.8 | 11.5 ± 0.7 | C#CCOc1cccc(NS(=O)(=O)c2ccc(O)c3ncccc23)c1 [3e, 8-Hydroxy-N-[3-(prop-2-yn-1-yloxy)phenyl]quinoline-5-sulfonamide] |  |  |  |  |  |  |
| 45.3 ± 5.4 | 12.9 ± 1.1 | C#CCOc1ccc(NS(=O)(=O)c2ccc(O)c3ncccc23)cc1 [3d, 8-Hydroxy-N-[4-(prop-2-yn-1-yloxy)phenyl]quinoline-5-sulfonamide] |  |  |  |  |  |  |
| 23.3 ± 1.2 | 23.1 ± 0.7 | C#CCNS(=O)(=O)c1ccc(O)c2ncccc12 [3a, 8-Hydroxy-N-(prop-2-yn-1-yl)quinoline-5-sulfonamide] |  |  |  |  |  |  |
| 55.8 ± 1.9 | 17.2 ± 1.5 | C#CC(C)(C)NS(=O)(=O)c1ccc(O)c2ncccc12 [3b, 8-Hydroxy-N-(1,1-dimethylprop-2-yn-1-yl)quinoline-5-sulfonamide] |  |  |  |  |  |  |
| 2.2 ± 0.1 | 13.9 ± 0.6 | C#CCN(C)S(=O)(=O)c1ccc(O)c2ncccc12 [3c, 8-Hydroxy-N-methyl-N-(prop-2-yn-1-yl)quinoline-5-sulfonamide] | significant decrease in cell number | reduction in proliferative activity and migration capacity | in favor of BAX | increase in the transcriptional activity | increase in the transcriptional activity | reduction in H3 expression |
